{"source": "paper PMC5218480", "about": "(PLoS ONE, 2017)", "system": "MV-4-11 cells", "assay": "Gene expression microarray analysis (Affymetrix PrimeView) and GSEA", "type": "cell-based, human", "set-up": "RFU PODN (11730768_x_at) / Fold change /veh PODN (11730768_x_at) / RFU LINC00158 (11744669_a_at) / Fold change /veh LINC00158 (11744669_a_at) / RFU DUSP10 (11751237_a_at) / Fold change /veh DUSP10 (11751237_a_at) / RFU ID3 (11757404_x_at) / Fold change /veh ID3 (11757404_x_at) / RFU PLEKHG5 (11737974_s_at) / Fold change /veh PLEKHG5 (11737974_s_at) / RFU LRRC4B (11730491_at) / Fold change /veh LRRC4B (11730491_at) / RFU GIMAP4 (11747438_a_at) / Fold change /veh GIMAP4 (11747438_a_at) / RFU KRT8 (11758183_x_at) / Fold change /veh KRT8 (11758183_x_at) / RFU CNN1 (11734310_a_at) / Fold change /veh CNN1 (11734310_a_at) / RFU VPS37D (11726825_at) / Fold change /veh VPS37D (11726825_at) / RFU C10orf10 (11716522_x_at) / Fold change /veh C10orf10 (11716522_x_at) / RFU KIR2DL2 /// KIR2DL4 /// KIR2DL5A /// KIR2DL5B /// KIR2DS1 /// KIR2DS2 /// KIR2DS3 /// KIR2DS4 /// KIR3DL3 /// KIR3DL3 /// KIR3DS1 (11738374_at) / Fold change /veh KIR2DL2 /// KIR2DL4 /// KIR2DL5A /// KIR2DL5B /// KIR2DS1 /// KIR2DS2 /// KIR2DS3 /// KIR2DS4 /// KIR3DL3 /// KIR3DL3 /// KIR3DS1 (11738374_at) / RFU C1QL1 (11718748_at) / Fold change /veh C1QL1 (11718748_at) / RFU TMPRSS4 (11747572_a_at) / Fold change /veh TMPRSS4 (11747572_a_at) / RFU HAMP (11756126_x_at) / Fold change /veh HAMP (11756126_x_at) / RFU RNFT2 (11725882_a_at) / Fold change /veh RNFT2 (11725882_a_at) / RFU NR4A2 (11747474_a_at) / Fold change /veh NR4A2 (11747474_a_at) / RFU ABCC12 (11746883_a_at) / Fold change /veh ABCC12 (11746883_a_at) / RFU TMEM136 (11760407_x_at) / Fold change /veh TMEM136 (11760407_x_at) / RFU CLDN22 /// WWC2 (11732394_at) / Fold change /veh CLDN22 /// WWC2 (11732394_at) / RFU HLA-DPB1 (11760878_x_at) / Fold change /veh HLA-DPB1 (11760878_x_at) / RFU SPINT1 (11716480_a_at) / Fold change /veh SPINT1 (11716480_a_at) / RFU GAP43 (11754022_s_at) / Fold change /veh GAP43 (11754022_s_at) / RFU A4GNT (11735810_at) / Fold change /veh A4GNT (11735810_at) / RFU PRB3 (11715151_x_at) / Fold change /veh PRB3 (11715151_x_at) / RFU TUBB4B (11761932_at) / Fold change /veh TUBB4B (11761932_at) / RFU CAPN14 (11732068_a_at) / Fold change /veh CAPN14 (11732068_a_at) / RFU TMCC2 (11721928_a_at) / Fold change /veh TMCC2 (11721928_a_at) / RFU IRGQ (11745062_a_at) / Fold change /veh IRGQ (11745062_a_at) / RFU FAM174B (11720279_a_at) / Fold change /veh FAM174B (11720279_a_at) / RFU TMPRSS4 (11748680_a_at) / Fold change /veh TMPRSS4 (11748680_a_at) / RFU FAM212B (11763350_a_at) / Fold change /veh FAM212B (11763350_a_at) / RFU PLEKHG5 (11743358_a_at) / Fold change /veh PLEKHG5 (11743358_a_at) / RFU ZSCAN30 (11745921_a_at) / Fold change /veh ZSCAN30 (11745921_a_at) / RFU CMKLR1 (11741424_a_at) / Fold change /veh CMKLR1 (11741424_a_at) / RFU LOC101060620 /// MAPK8IP1 (11723275_at) / Fold change /veh LOC101060620 /// MAPK8IP1 (11723275_at) / RFU SPTSSB (11747773_x_at) / Fold change /veh SPTSSB (11747773_x_at) / RFU PRSS12 (11739890_at) / Fold change /veh PRSS12 (11739890_at) / RFU BIN1 (11741810_x_at) / Fold change /veh BIN1 (11741810_x_at) / RFU WNT11 (11732464_a_at) / Fold change /veh WNT11 (11732464_a_at) / RFU C10orf10 (11716521_a_at) / Fold change /veh C10orf10 (11716521_a_at) / RFU C5orf56 (11738089_at) / Fold change /veh C5orf56 (11738089_at) / RFU CYB561 (11721691_x_at) / Fold change /veh CYB561 (11721691_x_at) / RFU ANKRD19P (11752326_a_at) / Fold change /veh ANKRD19P (11752326_a_at) / RFU OR2T12 /// OR2T33 /// OR2T8 (11738714_s_at) / Fold change /veh OR2T12 /// OR2T33 /// OR2T8 (11738714_s_at) / RFU VCAN (11748164_a_at) / Fold change /veh VCAN (11748164_a_at) / RFU JSRP1 (11732532_at) / Fold change /veh JSRP1 (11732532_at) / RFU KRTAP10-11 (11738290_x_at) / Fold change /veh KRTAP10-11 (11738290_x_at) / RFU MYO3A (11730013_a_at) / Fold change /veh MYO3A (11730013_a_at) / RFU EBF3 (11725865_a_at) / Fold change /veh EBF3 (11725865_a_at) / RFU CAMK2N1 (11719241_x_at) / Fold change /veh CAMK2N1 (11719241_x_at) / RFU C5orf56 (11738088_a_at) / Fold change /veh C5orf56 (11738088_a_at) / RFU OLFML3 (11715873_a_at) / Fold change /veh OLFML3 (11715873_a_at) / RFU LOC100653217 /// NTM (11731650_a_at) / Fold change /veh LOC100653217 /// NTM (11731650_a_at) / RFU MAPK11 (11762145_a_at) / Fold change /veh MAPK11 (11762145_a_at) / RFU FIZ1 (11724087_x_at) / Fold change /veh FIZ1 (11724087_x_at) / RFU OASL (11726364_x_at) / Fold change /veh OASL (11726364_x_at) / RFU SOX15 (11748057_x_at) / Fold change /veh SOX15 (11748057_x_at) / RFU CD79A (11719716_a_at) / Fold change /veh CD79A (11719716_a_at) / RFU HIST1H1D (11736915_at) / Fold change /veh HIST1H1D (11736915_at) / RFU CASKIN2 (11723855_a_at) / Fold change /veh CASKIN2 (11723855_a_at) / RFU LOC730098 (11760151_x_at) / Fold change /veh LOC730098 (11760151_x_at) / RFU OR4N2 (11742367_at) / Fold change /veh OR4N2 (11742367_at) / RFU PRRT2 (11749266_a_at) / Fold change /veh PRRT2 (11749266_a_at) / RFU SNX32 (11753110_a_at) / Fold change /veh SNX32 (11753110_a_at) / RFU CDHR5 (11726645_a_at) / Fold change /veh CDHR5 (11726645_a_at) / RFU RCAN1 (11760418_a_at) / Fold change /veh RCAN1 (11760418_a_at) / RFU FAM167A (11723789_a_at) / Fold change /veh FAM167A (11723789_a_at) / RFU FAM26E (11764081_at) / Fold change /veh FAM26E (11764081_at) / RFU ISYNA1 (11749810_s_at) / Fold change /veh ISYNA1 (11749810_s_at) / RFU ACY1 (11761880_at) / Fold change /veh ACY1 (11761880_at) / RFU 11764098_at / Fold change /veh 11764098_at / RFU SAMD14 (11745864_x_at) / Fold change /veh SAMD14 (11745864_x_at) / RFU NPB (11741838_a_at) / Fold change /veh NPB (11741838_a_at) / RFU TMPRSS6 (11731388_a_at) / Fold change /veh TMPRSS6 (11731388_a_at) / RFU KRTAP10-2 (11738614_at) / Fold change /veh KRTAP10-2 (11738614_at) / RFU ARHGAP8 /// PRR5-ARHGAP8 (11727945_x_at) / Fold change /veh ARHGAP8 /// PRR5-ARHGAP8 (11727945_x_at) / RFU KRTAP5-7 /// NADSYN1 (11734609_at) / Fold change /veh KRTAP5-7 /// NADSYN1 (11734609_at) / RFU RASL12 (11751679_a_at) / Fold change /veh RASL12 (11751679_a_at) / RFU CDKN2B (11736163_a_at) / Fold change /veh CDKN2B (11736163_a_at) / RFU PRF1 (11729649_at) / Fold change /veh PRF1 (11729649_at) / RFU, ZNF638 /// ZNF638-IT1 / Fold change vs veh, ZNF638 /// ZNF638-IT1 / RFU, PANK3 / Fold change vs veh, PANK3 / RFU, SH3YL1 / Fold change vs veh, SH3YL1 / RFU, ZEB2 / Fold change vs veh, ZEB2 / RFU, NRIP1 / Fold change vs veh, NRIP1 / RFU, PTTG1IP / Fold change vs veh, PTTG1IP / RFU, CAPN2 / Fold change vs veh, CAPN2 / RFU, MED14 / Fold change vs veh, MED14 / RFU, SNORA58 / Fold change vs veh, SNORA58 / RFU, C1orf63 / Fold change vs veh, C1orf63 / RFU, LRRFIP1 / Fold change vs veh, LRRFIP1 / RFU, NDUFAF7 / Fold change vs veh, NDUFAF7 / RFU, SLC12A2 / Fold change vs veh, SLC12A2 / RFU, IBTK / Fold change vs veh, IBTK / RFU, ESF1 / Fold change vs veh, ESF1 / Fold change vs veh, TMEM50B / RFU, TAOK1 / Fold change vs veh, TAOK1 / RFU, ACBD3 / Fold change vs veh, ACBD3 / RFU, TMA16 / Fold change vs veh, TMA16 / RFU, RWDD3 / Fold change vs veh, RWDD3 / RFU, BCAT1 / Fold change vs veh, BCAT1 / RFU, EDEM3 / Fold change vs veh, EDEM3 / RFU, TMEM33 / Fold change vs veh, TMEM33 / RFU, WDR75 / Fold change vs veh, WDR75 / RFU, AHCTF1 / Fold change vs veh, AHCTF1 / RFU, TFRC / Fold change vs veh, TFRC / RFU, ZDHHC17 / Fold change vs veh, ZDHHC17 / RFU, NOM1 / Fold change vs veh, NOM1 / RFU, ARL8B / Fold change vs veh, ARL8B / RFU, ZBTB11 / Fold change vs veh, ZBTB11 / RFU, TAMM41 / Fold change vs veh, TAMM41 / RFU, KIAA1704 /// LOC100996395 / Fold change vs veh, KIAA1704 /// LOC100996395 / RFU, ING1 / Fold change vs veh, ING1 / RFU, TRMT61B / Fold change vs veh, TRMT61B / RFU, FUBP3 / Fold change vs veh, FUBP3 / RFU, TP53 / Fold change vs veh, TP53 / RFU, TNKS2 / Fold change vs veh, TNKS2 / RFU, ZFP14 / Fold change vs veh, ZFP14 / RFU, ACTR2 / Fold change vs veh, ACTR2 / RFU, PPP3R1 / Fold change vs veh, PPP3R1 / RFU, PIK3R1 / Fold change vs veh, PIK3R1 / RFU, HNRNPA1 / Fold change vs veh, HNRNPA1 / RFU, RNF170 / Fold change vs veh, RNF170 / RFU, ZNF28 / Fold change vs veh, ZNF28 / RFU, RNGTT / Fold change vs veh, RNGTT / RFU, OGT / Fold change vs veh, OGT / RFU, BRD1 / Fold change vs veh, BRD1 / RFU, MARS / Fold change vs veh, MARS / RFU, ZNF655 / Fold change vs veh, ZNF655 / RFU, FAHD1 / Fold change vs veh, FAHD1 / RFU, BDP1 / Fold change vs veh, BDP1 / RFU, LRRCC1 / Fold change vs veh, LRRCC1 / RFU, ARID1A / Fold change vs veh, ARID1A / RFU, ZNF146 / Fold change vs veh, ZNF146 / RFU, ZNF330 / Fold change vs veh, ZNF330 / RFU, GPN3 / Fold change vs veh, GPN3 / RFU, C9orf123 / Fold change vs veh, C9orf123 / RFU, N4BP2L2 / Fold change vs veh, N4BP2L2 / RFU, ARFIP1 / Fold change vs veh, ARFIP1 / RFU, FAM179B / Fold change vs veh, FAM179B / RFU, BCL10 / Fold change vs veh, BCL10 / RFU, UHRF1BP1L / Fold change vs veh, UHRF1BP1L / RFU, BET1 / Fold change vs veh, BET1 / RFU, CNOT2 / Fold change vs veh, CNOT2 / RFU, ZNF268 / Fold change vs veh, ZNF268 / Fold change vs veh, ZNF507 / RFU, DGCR2 / Fold change vs veh, DGCR2 / RFU, WDSUB1 / Fold change vs veh, WDSUB1 / Fold change vs veh, HSP90B1 /// MIR3652 / RFU, ADSS / Fold change vs veh, ADSS / RFU, GK / Fold change vs veh, GK / RFU, ZNF148 / Fold change vs veh, ZNF148 / RFU, TAF9 / Fold change vs veh, TAF9 / RFU, SLC1A5 / Fold change vs veh, SLC1A5 / RFU, SLMO2 / Fold change vs veh, SLMO2 / RFU, ABCC4 / Fold change vs veh, ABCC4 / RFU, LOC101060439 /// RAP1B / Fold change vs veh, LOC101060439 /// RAP1B / RFU, RFX7 / Fold change vs veh, RFX7 / RFU, GTPBP10 / Fold change vs veh, GTPBP10 / RFU, CNEP1R1 / Fold change vs veh, CNEP1R1 / RFU, BIVM-ERCC5 /// ERCC5 / Fold change vs veh, BIVM-ERCC5 /// ERCC5 / RFU, ILF3 / Fold change vs veh, ILF3 / RFU 11762660_at / Fold change /veh 11762660_at / RFU VCAN (11757783_s_at) / Fold change /veh VCAN (11757783_s_at) / RFU DDX43 (11728927_at) / Fold change /veh DDX43 (11728927_at) / RFU KRT8 (11758188_x_at) / Fold change /veh KRT8 (11758188_x_at) / RFU NKD1 (11759106_at) / Fold change /veh NKD1 (11759106_at) / RFU SRD5A1 (11742802_a_at) / Fold change /veh SRD5A1 (11742802_a_at) / RFU TPSAB1 /// TPSB2 (11721975_s_at) / Fold change /veh TPSAB1 /// TPSB2 (11721975_s_at) / RFU GSTM3 (11746129_a_at) / Fold change /veh GSTM3 (11746129_a_at) / RFU IL23R (11737362_x_at) / Fold change /veh IL23R (11737362_x_at) / RFU TMEM51 (11727254_a_at) / Fold change /veh TMEM51 (11727254_a_at) / RFU PIWIL2 (11732686_x_at) / Fold change /veh PIWIL2 (11732686_x_at) / RFU ORM1 (11744905_x_at) / Fold change /veh ORM1 (11744905_x_at) / RFU CCDC152 (11743942_at) / Fold change /veh CCDC152 (11743942_at) / RFU ECM1 (11717891_a_at) / Fold change /veh ECM1 (11717891_a_at) / RFU IL23R (11748794_a_at) / Fold change /veh IL23R (11748794_a_at) / RFU TNFAIP8L3 (11732012_x_at) / Fold change /veh TNFAIP8L3 (11732012_x_at) / RFU MBOAT4 (11741988_at) / Fold change /veh MBOAT4 (11741988_at) / RFU 11764193_at / Fold change /veh 11764193_at / RFU TMEM53 (11763286_at) / Fold change /veh TMEM53 (11763286_at) / RFU MAGEB2 (11727129_at) / Fold change /veh MAGEB2 (11727129_at) / RFU TMEM200A (11744735_a_at) / Fold change /veh TMEM200A (11744735_a_at) / RFU CCDC152 (11751479_a_at) / Fold change /veh CCDC152 (11751479_a_at) / RFU FAM211A (11726209_a_at) / Fold change /veh FAM211A (11726209_a_at) / RFU RGS16 (11746705_a_at) / Fold change /veh RGS16 (11746705_a_at) / RFU VCAN (11755009_s_at) / Fold change /veh VCAN (11755009_s_at) / RFU RHOB (11743442_s_at) / Fold change /veh RHOB (11743442_s_at) / RFU RGS16 (11720943_a_at) / Fold change /veh RGS16 (11720943_a_at) / RFU RGS16 (11720944_at) / Fold change /veh RGS16 (11720944_at) / RFU, VPS4B / Fold change vs veh, VPS4B / RFU, CREB1 / Fold change vs veh, CREB1 / RFU, DNAJC13 / Fold change vs veh, DNAJC13 / RFU, GNAQ / Fold change vs veh, GNAQ / RFU, CDK5R1 / Fold change vs veh, CDK5R1 / RFU, ZRANB3 / Fold change vs veh, ZRANB3 / RFU, CUL4A / Fold change vs veh, CUL4A / RFU, CCNY / Fold change vs veh, CCNY / RFU, UFL1 / Fold change vs veh, UFL1 / RFU, COG3 / Fold change vs veh, COG3 / RFU, DIAPH2 / Fold change vs veh, DIAPH2 / RFU, SKA2 / Fold change vs veh, SKA2 / RFU, AFF3 / Fold change vs veh, AFF3 / RFU, LMF1 / Fold change vs veh, LMF1 / RFU, IPO11 / Fold change vs veh, IPO11 / RFU, DFFB / Fold change vs veh, DFFB / RFU, FOXP1 / Fold change vs veh, FOXP1 / RFU, CARD8 / Fold change vs veh, CARD8 / RFU, STRN3 / Fold change vs veh, STRN3 / RFU, ADK / Fold change vs veh, ADK / RFU, RASSF2 / Fold change vs veh, RASSF2 / RFU, WIPF1 / Fold change vs veh, WIPF1 / RFU, LARP1B / Fold change vs veh, LARP1B / RFU, RASA1 / Fold change vs veh, RASA1 / RFU, RB1 / Fold change vs veh, RB1 / RFU, PPFIA1 / Fold change vs veh, PPFIA1 / RFU, MAT2A / Fold change vs veh, MAT2A / RFU, CCT5 / Fold change vs veh, CCT5 / RFU, WDR92 / Fold change vs veh, WDR92 / RFU, CUX1 / Fold change vs veh, CUX1 / RFU, TTC7A / Fold change vs veh, TTC7A / RFU, TMEM135 / Fold change vs veh, TMEM135 / RFU, DEPTOR / Fold change vs veh, DEPTOR / RFU, CPM / Fold change vs veh, CPM / RFU, DNAJB6 / Fold change vs veh, DNAJB6 / RFU, CACNA2D3 / Fold change vs veh, CACNA2D3 / RFU, DTX4 / Fold change vs veh, DTX4 / RFU, TFCP2 / Fold change vs veh, TFCP2 / RFU, GMCL1 /// GMCL1P1 / Fold change vs veh, GMCL1 /// GMCL1P1 / RFU, AEBP2 / Fold change vs veh, AEBP2 / RFU, SNHG1 /// SNORD22 /// SNORD25 /// SNORD26 /// SNORD27 /// SNORD28 /// SNORD29 /// SNORD31 / Fold change vs veh, SNHG1 /// SNORD22 /// SNORD25 /// SNORD26 /// SNORD27 /// SNORD28 /// SNORD29 /// SNORD31 / Fold change (Aza/veh), C12orf56 (ProbeSet 11735607_a_at) / Fold change (ACY-1035/veh), C12orf56 (ProbeSet 11735607_a_at) / Fold change (Aza/veh), FGFR1OP (ProbeSet 11751329_s_at) / Fold change (ACY-1035/veh), FGFR1OP (ProbeSet 11751329_s_at) / Fold change (Aza/veh), VPS36 (ProbeSet 11739960_a_at) / Fold change (ACY-1035/veh), VPS36 (ProbeSet 11739960_a_at) / RFU SYPL1 (11715823_x_at) / Fold change /veh SYPL1 (11715823_x_at) / RFU IGFBP7 (11715501_s_at) / Fold change /veh IGFBP7 (11715501_s_at) / RFU REEP3 (11722064_at) / Fold change /veh REEP3 (11722064_at) / RFU IGLL1 (11728026_x_at) / Fold change /veh IGLL1 (11728026_x_at): dose or concentration left out as unconfirmed", "conditions": "ProbeSet 11715478_a_at; LIST B", "data": [{"compound": "Nc1ncn([C@@H]2O[C@H](CO)[C@@H](O)[C@H]2O)c(=O)n1", "note": "[azacitidine]", "values": [{"measurement": "Fold change vs veh, TFRC", "value": 0.85}]}]}
